Reference: patent publication US20200215142A1, “PHARMACEUTICAL COMPOSITION CONTAINING AVOCADO OIL FRACTION AS ACTIVE INGREDIENT FOR PREVENTION OR TREATMENT OF HEARING LOSS” (DONG KOOK PHARM CO., LTD, priority 2017, published 2020)

How the values were obtained:
[1] = test system: hair cells of zebrafish reduced by neomycin; assay: Hair cells of zebrafish larvae reduced by neomycin (ototoxicity), YO-PRO staining and fluorescence microscope count; format: in vivo; details: neomycin 1 μM 1 h, then single substance 1 μg/ml 12 h (FIGS. 7, 8)
Experimental: Particularly, 6 days after fertilization, zebrafish […] placed in 24-well plates and neomycin was added thereto at the concentration of 1 μM. One hour later, neomycin was removed and the isopropanol fraction of avocado oil prepared in Example 1 was added at the concentration of 1 μg/ml. At this time, avocado oil was used as the control and 0.03% (w/v) sea salt solution was used as the untreated control. Twelve hours later, 0.1% YO-PRO (Life Technologies, USA) was added to stain hair cells of the […] for 30 minutes. […] Particularly, 6 days after fertilization, zebrafish […] placed in 24-well plates and neomycin was added thereto at the concentration of 1 μM. One hour later, neomycin was removed and A-E were added at the concentration of 10 μg/ml. At this time, 0.03% (w/v) sea salt solution was used as the control. Twelve hours later, 0.1% YO-PRO (Life Technologies, USA) was added to stain hair cells of the […] for 30 minutes. The stained hair cells were observed using a fluorescence microscope (Olympus 1x70, Olympus, Japan), and the number of the observed hair cells was counted and analyzed.

[2] = test system: hair cells of zebrafish reduced by kanamycin; format: in vivo; details: kanamycin 1 μM vs neomycin 1 μM, 1 h; comparison of Experimental Examples 6 and 7
Experimental: Particularly, 6 days after fertilization, zebrafish larvaes were placed in 24-well plates and kanamycin was added thereto at the concentration of 1 μM. One hour later, kanamycin was removed and IPG and BG were added at the concentration of 10 μg/ml. At this time, 0.03% (w/v) sea salt solution was used as the control. Twelve hours later, 0.1% YO-PRO (Life Technologies, USA) was added to stain hair cells of the larvaes for 30 minutes. The stained hair cells were observed using a fluorescence microscope (Olympus 1x70, Olympus, Japan), and the number of the observed hair cells was counted and analyzed. As a result, the number of hair cells observed with a fluorescence microscope was shown in FIG. 11 and photomicrographs of the hair cells taken with a fluorescence microscope were shown in FIG. 12.

Question: With `CC/C=C\C/C=C\C/C=C\CCCCCCCC(=O)O` [alpha-linolenic acid] as the compound, how does the “number of hair cells” value [1] read?
Answer: The value was “significantly increased”.

Question: `NC[C@H]1O[C@H](O[C@H]2[C@H](O)[C@@H](O[C@H]3O[C@H](CO)[C@@H](O)[C@H](N)[C@H]3O)[C@H](N)C[C@@H]2N)[C@H](O)[C@@H](O)[C@@H]1O` [kanamycin] was tested. Which “toxicity to hair cells of zebrafish fry (reduction of the number of hair cells)” value [2] did it give?
Answer: Its value is “more toxic than neomycin”.

Question: For `CCCCC/C=C\C/C=C\CCCCCCCC(=O)O` [linoleic acid], which “number of hair cells” value [1] is on record?
Answer: The value was “significantly increased”.

Question: How did the “number of hair cells” value [1] turn out when `CCCCCCCCCCCCCCCCCC(=O)O` [stearic acid] was run?
Answer: The value was “significantly increased”.
